The values below come from US6888014B2, “Dammarane sapogenins, their use as anti-cancer agents, and a process for producing same” (PanaGin Pharmaceuticals Inc., priority 2001, dated 2005).

Data set [1] has as its system Human non-small-cell lung carcinoma H460 cells. Description: Cancer cell inhibition in vitro, crystal violet staining, cell viability. The class given is cell-based. The settings on record: for V(%) cancer cell viability / Absorbency of Stained Cells (M ± SD) / viability at 40 µg/mL / viability at 25 µg/mL: H460 cells, 24 hours; for Absorbency of Stained Cells (M ± SD): 590 nm; for inhibitory effect on proliferation of H460 cells (in words): P<0.01 compared with control; for viability at 40 µg/mL / viability at 25 µg/mL: Homo sapiens, NCI-H460, read-out: V(%) cancer cell viability; for inhibitory effect on proliferation of H460 cells compared with Rh2 (in words): P<0.05 compared with that of Rh2. How it is done: Composition: 20(S)-Rh2 was provided by Shenyang Pegasus Pharmaceutical R&D Co., China, with a purity of over 98%. The molecular weight for Rh2 was 622.3. Sapogenins PAM-120, PBM-100 and PAN-30 were derived from the process stated in Example 1. The molecular weights of PAM-120, PBM-100 and PAN-30 were respectively 442.7, 474.7 and 766.6, and the purity for each of the three agents was higher than 99%. Rh2, PAM-120, PBM-100 and PAN-30 were dissolved 1 gram each separately in 100 ml absolute ethanol and stored at 4° C. the agents were diluted with RPMI-1640 medium to the desired concentrations as shown in Table 1.
Cells: Human non-small-cell lung carcinoma H460 cells were incubated in RPMI-1640 medium added with 10% fetal calf serum, 100 units penicillin/ml, and 100 μg streptomycin/ml in 5% CO2 at 37° C.
In vitro treatment: H460 cells were seeded in 96-well flat-bottomed microtest-plates at 1.2×10^3 cells per well, six wells in each group, incubated in humidified 5% CO2 at 37° C. for 24 hours with or without the agents according to the schedule as shown below.
After the 24 hours of incubation, an equal volume of 10% formalin phosphate-buffered saline containing 0.2% crystal violet was added to each well and left at room temperature for 20 minutes. The plates were then washed twice with distilled water and dried at room temperature. The absorbency of the stained cells at 590 nm was then measured using an automatic microtest-plate reader. Average absorbency of the control wells (Ac) without any treatment was calculated, average absorbency of each treatment group (ATi) was determined, and then the average cell viability of each treatment group (Vi) was derived using the following formula: [formula] B. Result

The test system of another data set is Murine sarcoma 180 cells. Description: Cancer bearing mice life prolongation test. The settings on record: for DS50 (days of survival for 50% animals) / LPR(%) life prolongation rate: oral, lifetime or up to 120 days. Format: in vivo, C57BL/6J mice. An excerpt: Fifty (50) C57BL/6J mice weighing 18-22 g, without sex discrimination, were randomly assigned to one control group and four treatment groups, each with 10 animals. Murine sarcoma 180 cells were intraperitoneally transplanted to the mice. 20(S)-Rh2 was provided by Shenyang Pegasus Pharmaceutical R&D Co., China, with a purity of over 98%. The molecular weight for Rh2 was 622.3. The novel sapogenin PAM-120 was derived from the process described in Example 2 according to this invention. The molecular weight of PAM-120 was 442.7, and the purity for PAM-120 was higher than 99%. The drugs were prepared into a suspension form respectively. The mice were weighed daily prior to drug administration to determine the actual measurement of drug administered. Drug administration started from 24 hours post tumor inoculation. The mice in the two low-dose treatment groups were orally given the Rh2 and PAM-120 preparations using a gastric catheter at a daily dose of 10 mg/kg of Rh2 and 10 mg/kg of PAM-120 respectively for a lifetime or up to 120 days. The mice in the two high-dose treatment groups were orally given the Rh2 and PAM-120 preparations using a gastric catheter at a daily dose of 25 mg/kg of Rh2 and 25 mg/kg of PAM-120 respectively for a lifetime or up to 120 days. The mice in the control group were orally given a normal saline. For each group, the days of survival for 50% animals (DS50) and the average days of survival (ADS) were recorded. For groups containing one or more animals that could have lived longer than 120 days (the designed sacrifice day was d 120), the ADS would be so calculated that these animals were counted as if they had died on day 120, and a note would be made. The life prolongation rate (LPR) was calculated with the following formula: [formula] B. Result

The subject of data set [2] is human malignant glioma cells (U87). In words: Mouse intracranial human malignant glioma (U87) model (FIG. 5). The class given is in vivo, Nude mice. The settings on record: 25 mg/kg and 50 mg/kg, treatment from day 10 post implantation, p<0.01 Kaplan Meier. How it is done: FIG. 5 illustrates a graph of the therapeutic effect of PAM-120 on mouse intracranial human malignant glioma (U87) model. Nude mice were intracranially implanted with human malignant glioma cells (U87). On day 10 post tumor implantation, animals were treated with various dosages of PAM-120.

For data set [3] the test system is unchanged. Description: Mouse subcutaneous human malignant glioma (U87) model (FIG. 6). The settings on record: 25 mg/ml; for tumor growth compared with PBS control animals (in words): treatment from day 7, tumor sizes measured day 7 and day 24. Format: in vivo, Nude mice. How it is done: FIG. 6 illustrates a graph of the therapeutic effect of PAM-120 on mouse subcutaneous human malignant glioma (U87) model. Nude mice were subcutaneously implanted with human malignant glioma cells (U87). On day 7 post tumor implantation, animals were treated with 25 mg/ml PAM-120 or equal dose of Rh2. Tumor sizes were measured on day 7 (before treatment) and day 24 (after the treatment).

As for “3-O-[β-D-glucopyranosyl(1→2)-β-D-glucopyranosyl]-dammara-20(22E)-diene-3,12-diol [PAN-30]”, in data set [1] (high-dose 40 μg/ml), the “V(%) cancer cell viability” value came to 41.49% and the “Absorbency of Stained Cells (M ± SD)” value was “.147 ± .032”. In data set [1] (low-dose 25 μg/ml), the “V(%) cancer cell viability” value came out at 70.30% and the “Absorbency of Stained Cells (M ± SD)” value is “.249 ± .045”. Besides, in data set [1], the “inhibitory effect on proliferation of H460 cells (in words)” value was “significant inhibitory effect”.
Consider `C=C(CCC=C(C)C)C1CC[C@]2(C)C1[C@H](O)CC1[C@@]3(C)CC[C@H](O)C(C)(C)C3CC[C@]12C` (stereo partly drawn) [PAM-120, Dammara-20(21)-diene-3,12-diol], for which, in data set [1] (high-dose 40 μg/ml), the “Absorbency of Stained Cells (M ± SD)” value is “.125 ± .031” and the viability – broadly, a per cent measure of how many cells are alive, often set against a control – at 40 µg/mL was determined as 35.3%. Also, in data set [1] (low-dose 25 μg/ml), the “Absorbency of Stained Cells (M ± SD)” value is listed as “.220 ± .051” and the viability at 25 µg/mL was determined as 62.1%. In addition, in data set [1], the “inhibitory effect on proliferation of H460 cells (in words)” value was “significant inhibitory effect” and the “inhibitory effect on proliferation of H460 cells compared with Rh2 (in words)” value is given as “notable increase in inhibitory effect”. The “mice that survived the whole 120 days, no tumors found postmortally” value in the data set on Murine sarcoma 180 cells (25 mg/kg treatment group, 10 animals) is recorded as “Two”. Further, the “anti-cancer effect on murine sarcoma compared with Rh2 (in words)” value in the data set on Murine sarcoma 180 cells (P<0.01 compared with relevant Rh2 treatment dose groups) is “Better anti-cancer effect”. Also, the “life prolongation of mice bearing murine sarcoma compared with control (in words)” value in the data set on Murine sarcoma 180 cells (P<0.01 compared with the average days of survival in the control) was “significant increase in life prolongation”. In the data set with Murine sarcoma 180 cells (10 mg/kg daily), the “DS50 (days of survival for 50% animals)” value worked out at 38 days and the “LPR(%) life prolongation rate” value was determined as 162.6%. Moreover, in the data set with Murine sarcoma 180 cells (25 mg/kg daily), the “DS50 (days of survival for 50% animals)” value is 77 days and the “LPR(%) life prolongation rate” value was determined as 448.3%. Besides, the “survival time after tumor implantation (in words)” value in data set [2] is “significantly longer survival time”. Further, the “tumor sizes compared with Rh2 treated animals (in words)” value in data set [3] (equal dose of Rh2, day 24, p<0.05) is “significantly smaller”. For the same compound, the “tumor growth compared with PBS control animals (in words)” value in data set [3] is on record as “significantly inhibited tumor growth”.
With `C=C(C)[C@H](O)C/C=C(\C)C1CC[C@]2(C)C1[C@H](O)CC1[C@@]3(C)CC[C@H](O)C(C)(C)C3[C@@H](O)C[C@]12C` (stereo partly drawn) [PBM-100], in data set [1] (high-dose 40 μg/ml), the “Absorbency of Stained Cells (M ± SD)” value was “.130 ± .019” and the viability at 40 µg/mL was 36.5%. Besides, in data set [1] (low-dose 25 μg/ml), the “Absorbency of Stained Cells (M ± SD)” value is “.223 ± .040” and the viability at 25 µg/mL came out at 62.7%. Also, in data set [1], the “inhibitory effect on proliferation of H460 cells (in words)” value is on record as “significant inhibitory effect” and the “inhibitory effect on proliferation of H460 cells compared with Rh2 (in words)” value is “notable increase in inhibitory effect”.
Regarding `CC(C)=CCC[C@](C)(O)[C@H]1CC[C@]2(C)[C@@H]1[C@H](O)C[C@@H]1[C@@]3(C)CC[C@H](O[C@@H]4O[C@H](CO)[C@@H](O)[C@H](O)[C@H]4O)C(C)(C)[C@@H]3CC[C@]12C` [Rh2, 3-O-β-D-glucopyranosyl-20(s)-protopanaxadiol, reference compound], in data set [1] (high-dose 40 μg/ml), the “V(%) cancer cell viability” value is 50.99% and the “Absorbency of Stained Cells (M ± SD)” value is recorded as “.181 ± .049”. Further, in data set [1] (low-dose 25 μg/ml), the “V(%) cancer cell viability” value is given as 78.49% and the “Absorbency of Stained Cells (M ± SD)” value is listed as “.278 ± .030”. Moreover, in the data set on Murine sarcoma 180 cells (10 mg/kg daily), the “DS50 (days of survival for 50% animals)” value came out at 22 days and the “LPR(%) life prolongation rate” value was 68.0%. In the data set with Murine sarcoma 180 cells (25 mg/kg daily), the “DS50 (days of survival for 50% animals)” value is given as 41 days and the “LPR(%) life prolongation rate” value is reported as 201.4%. Moreover, in data set [3], the “tumor growth compared with PBS control animals (in words)” value is on record as “significantly inhibited tumor growth”.
